Laboratory results: PubChem BioAssay (NCI)
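Test compounds were applied to cells in 96-well plates for 48 hours at 5 doses. Abbreviation: GI50, concentration required for 50% inhibition of growth. TGI: total growth inhibition.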

What was measured:
Test in all cases: DTP human tumour cell line panel, 48 h
786-0 renal = system: 786-0 renal
A549 NSCLC = system: A549 NSCLC
ACHN renal = system: ACHN renal
CAKI-1 renal = system: CAKI-1 renal
COLO 205 colon = system: COLO 205 colon
DMS 114 small cell lung = system: DMS 114 small cell lung
DMS 273 small cell lung = system: DMS 273 small cell lung
EKVX NSCLC = system: EKVX NSCLC
HCC-2998 colon = system: HCC-2998 colon
HCT-116 colon = system: HCT-116 colon
HCT-15 colon = system: HCT-15 colon
HT29 colon = system: HT29 colon
IGROV1 ovarian = system: IGROV1 ovarian
K-562 leukemia = system: K-562 leukemia
KM12 colon = system: KM12 colon
KM20L2 colon = system: KM20L2 colon
LXFL 529 NSCLC = system: LXFL 529 NSCLC
M19-MEL melanoma = system: M19-MEL melanoma
MALME-3M melanoma = system: MALME-3M melanoma
MOLT-4 leukemia = system: MOLT-4 leukemia
NCI-H226 lung = system: NCI-H226 lung
NCI-H23 lung = system: NCI-H23 lung
OVCAR-3 ovarian = system: OVCAR-3 ovarian
OVCAR-5 ovarian = system: OVCAR-5 ovarian
OVCAR-8 ovarian = system: OVCAR-8 ovarian
RPMI-8226 leukemia = system: RPMI-8226 leukemia
RXF 393 renal = system: RXF 393 renal
SF-268 CNS = system: SF-268 CNS
SF-295 CNS = system: SF-295 CNS
SF-539 CNS = system: SF-539 CNS
SK-MEL-2 melanoma = system: SK-MEL-2 melanoma
SK-MEL-28 melanoma = system: SK-MEL-28 melanoma
SK-MEL-5 melanoma = system: SK-MEL-5 melanoma
SK-OV-3 ovarian = system: SK-OV-3 ovarian
SN12C renal = system: SN12C renal
SNB-19 CNS = system: SNB-19 CNS
SNB-75 CNS = system: SNB-75 CNS
SNB-78 CNS = system: SNB-78 CNS
SR leukemia = system: SR leukemia
SW-620 colon = system: SW-620 colon
TK-10 renal = system: TK-10 renal
U251 CNS = system: U251 CNS
UACC-257 melanoma = system: UACC-257 melanoma
UACC-62 melanoma = system: UACC-62 melanoma
UO-31 renal = system: UO-31 renal
A498 renal = system: A498 renal
BT-549 breast = system: BT-549 breast
CCRF-CEM leukemia = system: CCRF-CEM leukemia
DU-145 prostate = system: DU-145 prostate
HL-60(TB) leukemia = system: HL-60(TB) leukemia
HOP-62 NSCLC = system: HOP-62 NSCLC
HOP-92 NSCLC = system: HOP-92 NSCLC
HS 578T breast = system: HS 578T breast
LOX IMVI melanoma = system: LOX IMVI melanoma
M14 melanoma = system: M14 melanoma
MCF7 breast = system: MCF7 breast
MDA-MB-231 breast = system: MDA-MB-231 breast
MDA-MB-435 = system: MDA-MB-435
MDA-N = system: MDA-N
NCI-H460 lung = system: NCI-H460 lung
NCI-H522 lung = system: NCI-H522 lung
NCI/ADR-RES ovarian = system: NCI/ADR-RES ovarian
OVCAR-4 ovarian = system: OVCAR-4 ovarian
PC-3 prostate = system: PC-3 prostate
T-47D breast = system: T-47D breast

`COc1ccc2c(c1)OCCCN(C)OC2c1ccccc1` (stereo unspecified) was tested, and the TGI (786-0 renal) was greater than 100 µM, the TGI (A549 NSCLC) was greater than 100 µM and the TGI (ACHN renal) was greater than 100 µM. For the same compound, the TGI (CAKI-1 renal) was greater than 100 µM, the TGI (COLO 205 colon) was greater than 100 µM and the TGI (DMS 114 small cell lung) was greater than 100 µM. The TGI (DMS 273 small cell lung) was greater than 100 µM, the TGI (EKVX NSCLC) was greater than 100 µM and the TGI (HCC-2998 colon) was greater than 100 µM. It also gave a TGI (HCT-116 colon) greater than 100 µM, a TGI (HCT-15 colon) greater than 100 µM and a TGI (HT29 colon) greater than 100 µM. The TGI (IGROV1 ovarian) was greater than 100 µM, the TGI (K-562 leukemia) was greater than 100 µM and the TGI (KM12 colon) was greater than 100 µM. It also gave a TGI (KM20L2 colon) greater than 100 µM, a TGI (LXFL 529 NSCLC) greater than 100 µM and a TGI (M19-MEL melanoma) greater than 100 µM. For the same compound, the TGI (MALME-3M melanoma) was greater than 100 µM, the TGI (MOLT-4 leukemia) was greater than 100 µM and the TGI (NCI-H226 lung) was greater than 100 µM. The TGI (NCI-H23 lung) was greater than 100 µM, the TGI (OVCAR-3 ovarian) was greater than 100 µM and the TGI (OVCAR-5 ovarian) was greater than 100 µM. It also gave a TGI (OVCAR-8 ovarian) greater than 100 µM, a TGI (RPMI-8226 leukemia) greater than 100 µM and a TGI (RXF 393 renal) greater than 100 µM. It also gave a TGI (SF-268 CNS) greater than 100 µM, a TGI (SF-295 CNS) greater than 100 µM and a TGI (SF-539 CNS) greater than 100 µM. For the same compound, the TGI (SK-MEL-2 melanoma) was greater than 100 µM, the TGI (SK-MEL-28 melanoma) was greater than 100 µM and the TGI (SK-MEL-5 melanoma) was greater than 100 µM. For the same compound, the TGI (SK-OV-3 ovarian) was greater than 100 µM, the TGI (SN12C renal) was greater than 100 µM and the TGI (SNB-19 CNS) was greater than 100 µM. The TGI (SNB-75 CNS) was greater than 100 µM, the TGI (SNB-78 CNS) was greater than 100 µM and the TGI (SR leukemia) was greater than 100 µM. It also gave a TGI (SW-620 colon) greater than 100 µM, a TGI (TK-10 renal) greater than 100 µM and a TGI (U251 CNS) greater than 100 µM. The TGI (UACC-257 melanoma) was greater than 100 µM, the TGI (UACC-62 melanoma) was greater than 100 µM and the TGI (UO-31 renal) was greater than 100 µM.
`N#C/C(=C/NC(=S)NCc1ccccc1)C(N)=O` was tested, and the TGI (786-0 renal) was greater than 100 µM, the TGI (A498 renal) was greater than 100 µM and the TGI (A549 NSCLC) was greater than 100 µM. For the same compound, the TGI (ACHN renal) was greater than 100 µM, the GI50 (BT-549 breast) was greater than 100 µM and the TGI (BT-549 breast) was greater than 100 µM. For the same compound, the TGI (CAKI-1 renal) was greater than 100 µM, the TGI (CCRF-CEM leukemia) was greater than 100 µM and the TGI (COLO 205 colon) was greater than 100 µM. The TGI (DU-145 prostate) was greater than 100 µM, the TGI (EKVX NSCLC) was greater than 100 µM and the TGI (HCC-2998 colon) was greater than 100 µM. For the same compound, the TGI (HCT-116 colon) was greater than 100 µM, the TGI (HCT-15 colon) was greater than 100 µM and the TGI (HL-60(TB) leukemia) was greater than 100 µM. The TGI (HOP-62 NSCLC) was greater than 100 µM, the TGI (HOP-92 NSCLC) was greater than 100 µM and the TGI (HS 578T breast) was greater than 100 µM. The TGI (HT29 colon) was greater than 100 µM, the TGI (IGROV1 ovarian) was greater than 100 µM and the TGI (K-562 leukemia) was greater than 100 µM. The TGI (KM12 colon) was greater than 100 µM, the TGI (LOX IMVI melanoma) was greater than 100 µM and the TGI (M14 melanoma) was greater than 100 µM. The TGI (MALME-3M melanoma) was greater than 100 µM, the TGI (MCF7 breast) was greater than 100 µM and the TGI (MDA-MB-231 breast) was greater than 100 µM. For the same compound, the TGI (MDA-MB-435) was greater than 100 µM, the TGI (MDA-N) was greater than 100 µM and the TGI (MOLT-4 leukemia) was greater than 100 µM. For the same compound, the TGI (NCI-H226 lung) was greater than 100 µM, the TGI (NCI-H23 lung) was greater than 100 µM and the TGI (NCI-H460 lung) was greater than 100 µM. The TGI (NCI-H522 lung) was greater than 100 µM, the TGI (NCI/ADR-RES ovarian) was greater than 100 µM and the TGI (OVCAR-3 ovarian) was greater than 86.1 µM. It also gave a TGI (OVCAR-4 ovarian) greater than 100 µM, a TGI (OVCAR-5 ovarian) greater than 100 µM and a TGI (OVCAR-8 ovarian) greater than 100 µM. It also gave a TGI (PC-3 prostate) greater than 100 µM, a TGI (RPMI-8226 leukemia) greater than 100 µM and a TGI (RXF 393 renal) greater than 100 µM. The TGI (SF-268 CNS) was greater than 100 µM, the TGI (SF-295 CNS) was greater than 100 µM and the TGI (SF-539 CNS) was greater than 100 µM. The TGI (SK-MEL-2 melanoma) was greater than 100 µM, the TGI (SK-MEL-28 melanoma) was greater than 100 µM and the TGI (SK-MEL-5 melanoma) was greater than 100 µM. It also gave a TGI (SK-OV-3 ovarian) greater than 100 µM, a TGI (SN12C renal) greater than 100 µM and a TGI (SNB-19 CNS) greater than 100 µM. For the same compound, the TGI (SNB-75 CNS) was greater than 100 µM, the TGI (SR leukemia) was greater than 100 µM and the TGI (SW-620 colon) was greater than 100 µM. The TGI (T-47D breast) was greater than 100 µM, the GI50 (TK-10 renal) was greater than 100 µM and the TGI (TK-10 renal) was greater than 100 µM. It also gave a TGI (U251 CNS) greater than 100 µM, a TGI (UACC-257 melanoma) greater than 100 µM and a TGI (UACC-62 melanoma) greater than 100 µM. For the same compound, the TGI (UO-31 renal) was greater than 100 µM.
